Activity calls are given as the source filed them.
How the values were obtained:
[1] = target: Tyrosine-protein phosphatase non-receptor type 6 (Homo sapiens) (UniProt P29350); experiment: Increase of GST-tagged full length Shp1 activity expressed in Escherichia coli BL21 at 10 uM after 30 mins
[2] = target: Dual specificity protein phosphatase 3 (Homo sapiens) (UniProt P51452); experiment: Increase of GST-tagged full length Vhr activity expressed in Escherichia coli BL21 at 10 uM after 30 mins
[3] = target: T1, Tyrosine-protein phosphatase non-receptor type 7 (Homo sapiens) (UniProt P35236); experiment: Increase of GST-tagged full length HePTP activity expressed in Escherichia coli BL21 at 10 uM after 30 mins
T1 sequence (whole entry): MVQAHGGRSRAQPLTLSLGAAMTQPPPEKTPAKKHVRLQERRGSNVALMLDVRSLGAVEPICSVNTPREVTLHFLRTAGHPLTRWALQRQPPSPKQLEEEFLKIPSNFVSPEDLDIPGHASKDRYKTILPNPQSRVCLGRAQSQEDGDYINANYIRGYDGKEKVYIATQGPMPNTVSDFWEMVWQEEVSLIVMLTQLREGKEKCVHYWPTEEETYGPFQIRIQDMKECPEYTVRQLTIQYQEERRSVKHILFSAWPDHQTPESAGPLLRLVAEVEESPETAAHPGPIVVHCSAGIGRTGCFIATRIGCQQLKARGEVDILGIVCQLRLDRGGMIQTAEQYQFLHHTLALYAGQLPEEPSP

Measured: Activity

Sequence of Dual specificity protein phosphatase 3 (Homo sapiens) (P51452 whole entry, looked up): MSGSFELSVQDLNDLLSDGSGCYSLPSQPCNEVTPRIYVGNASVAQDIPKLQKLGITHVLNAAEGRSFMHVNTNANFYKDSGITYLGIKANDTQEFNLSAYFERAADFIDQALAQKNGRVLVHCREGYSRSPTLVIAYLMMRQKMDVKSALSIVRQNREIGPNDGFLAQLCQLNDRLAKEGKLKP
Sequence of Tyrosine-protein phosphatase non-receptor type 6 (Homo sapiens) (P29350 whole entry): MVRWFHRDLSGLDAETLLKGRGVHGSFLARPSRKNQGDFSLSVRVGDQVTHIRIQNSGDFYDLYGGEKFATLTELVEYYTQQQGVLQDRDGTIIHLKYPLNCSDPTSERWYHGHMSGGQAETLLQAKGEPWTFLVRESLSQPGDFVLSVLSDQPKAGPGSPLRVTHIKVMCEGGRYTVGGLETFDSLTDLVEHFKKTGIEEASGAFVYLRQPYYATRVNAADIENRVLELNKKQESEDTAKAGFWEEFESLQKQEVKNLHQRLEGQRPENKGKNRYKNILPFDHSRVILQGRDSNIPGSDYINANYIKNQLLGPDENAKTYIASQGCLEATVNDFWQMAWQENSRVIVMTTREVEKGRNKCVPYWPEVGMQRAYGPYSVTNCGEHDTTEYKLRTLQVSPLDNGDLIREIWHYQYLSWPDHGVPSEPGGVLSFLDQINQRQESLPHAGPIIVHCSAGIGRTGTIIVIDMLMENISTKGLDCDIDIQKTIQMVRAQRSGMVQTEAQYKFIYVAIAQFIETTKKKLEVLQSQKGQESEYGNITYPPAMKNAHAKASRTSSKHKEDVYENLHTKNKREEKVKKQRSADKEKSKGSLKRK

CC1(C)CC[C@]2(C(=O)O)CC[C@]3(C)C(=CC[C@@H]4[C@@]5(C)CC[C@H](O)C(C)(C)[C@@H]5CC[C@]43C)[C@@H]2C1
inactive: all assays above

Source: ChEMBL document CHEMBL1641441, “A novel screening model for the molecular drug for diabetes and obesity based on tyrosine phosphatase Shp2” (Bioorg Med Chem Lett, 2011)
